Assay results taken from ChEMBL document CHEMBL3774389, “C-3 benzoic acid derivatives of C-3 deoxybetulinic acid and deoxybetulin as HIV-1 maturation inhibitors” (Bioorg Med Chem, 2016).

Assays:
[1] = Cytotoxicity against human MT2 cells assessed as cell viability by redox dye assay; format: cell-based
[2] = test system: Human immunodeficiency virus 1; test: Antiviral activity against wild type HIV1 NLRepRlucP373S infected in human MT2 cells after 4 to 5 days by luciferase report gene based multiple cycle drug susceptibility assay; format: functional, organism-based; conditions: Human immunodeficiency virus 1, NLRepRlucP373S
[3] = test system: Human immunodeficiency virus 1; test: Antiviral activity against HIV1 containing gag V370A mutant infected in human MT2 cells after 4 to 5 days by luciferase report gene based multiple cycle drug susceptibility assay; format: functional, organism-based; conditions: Human immunodeficiency virus 1, MT2
[4] = test system: Human immunodeficiency virus 1; test: Ratio of EC50 for HIV1 NLRepRlucP373S infected in human MT2 cells in presence of HSA to EC50 for HIV1 NLRepRlucP373S infected in human MT2 cells in absence of HSA; format: functional
[5] = test system: Human immunodeficiency virus 1; test: Antiviral activity against wild type HIV1 NLRepRlucP373S infected in human MT2 cells after 4 to 5 days in presence of 15 mg/ml HSA by luciferase report gene based multiple cycle drug susceptibility assay; format: functional, organism-based; conditions: Human immunodeficiency virus 1, NLRepRlucP373S

C=C(C)[C@@H]1CC[C@]2(C(=O)O)CC[C@]3(C)[C@H](CC[C@@H]4[C@@]5(C)CC=C(c6ccc(C7(C(=O)O)CC7)cc6)C(C)(C)[C@@H]5CC[C@]43C)[C@@H]12
CC50 [1]: > 8000 nM | EC50 [2]: 215 nM | EC50 [3]: 633 nM

C=C(C)[C@@H]1CC[C@]2(C(=O)O)CC[C@]3(C)[C@H](CC[C@@H]4[C@@]5(C)CC=C(c6ccc(NC(=O)CCC(=O)O)cc6)C(C)(C)[C@@H]5CC[C@]43C)[C@@H]12
CC50 [1]: 7730 nM | EC50 [2]: 1470 nM | EC50 [3]: 1570 nM

C=C(C)[C@@H]1CC[C@]2(CO)CC[C@]3(C)[C@H](CC[C@@H]4[C@@]5(C)CC=C(c6ccc(C(=O)O)c(C(=O)O)c6)C(C)(C)[C@@H]5CC[C@]43C)[C@@H]12
CC50 [1]: > 20000 nM | EC50 [2]: 38 nM | EC50 [3]: 212 nM

C=C(C)[C@@H]1CC[C@]2(CO)CC[C@]3(C)[C@H](CC[C@@H]4[C@@]5(C)CC=C(c6cc(C(=O)O)[nH]n6)C(C)(C)[C@@H]5CC[C@]43C)[C@@H]12
CC50 [1]: 570 nM | EC50 [2]: 61 nM | EC50 [3]: 348 nM

C=C(C)[C@@H]1CC[C@]2(CO)CC[C@]3(C)[C@H](CC[C@@H]4[C@@]5(C)CC=C(c6ccc(C(=O)O)cn6)C(C)(C)[C@@H]5CC[C@]43C)[C@@H]12
CC50 [1]: 4300 nM | EC50 [2]: 503 nM | EC50 [3]: > 2000 nM

C=C(C)[C@@H]1CC[C@]2(CO)CC[C@]3(C)[C@H](CC[C@@H]4[C@@]5(C)CC=C(c6ccc(C(=O)O)c(F)c6)C(C)(C)[C@@H]5CC[C@]43C)[C@@H]12
CC50 [1]: 18800 nM | Ratio EC50 [4]: 4 | EC50 [2]: 46 nM | EC50 [5]: 185 nM | EC50 [3]: 309 nM

C=C(C)[C@@H]1CC[C@]2(C(=O)O)CC[C@]3(C)[C@H](CC[C@@H]4[C@@]5(C)CC=C(c6ccc(CCC(=O)O)cc6)C(C)(C)[C@@H]5CC[C@]43C)[C@@H]12
CC50 [1]: 6550 nM | EC50 [2]: 682 nM

C=C(C)[C@@H]1CC[C@]2(C(=O)O)CC[C@]3(C)[C@H](CC[C@@H]4[C@@]5(C)CC=C(c6cccc(CCC(=O)O)c6)C(C)(C)[C@@H]5CC[C@]43C)[C@@H]12
CC50 [1]: 1830 nM | EC50 [2]: 571 nM

C=C(C)[C@@H]1CC[C@]2(C(=O)O)CC[C@]3(C)[C@H](CC[C@@H]4[C@@]5(C)CC=C(c6ccc(O)cc6)C(C)(C)[C@@H]5CC[C@]43C)[C@@H]12
CC50 [1]: 13400 nM | EC50 [2]: 308 nM | EC50 [5]: > 8000 nM

C=C(C)[C@@H]1CC[C@]2(C(=O)O)CC[C@]3(C)[C@H](CC[C@@H]4[C@@]5(C)CC=C(c6ccc(/C=C/C(=O)O)cc6)C(C)(C)[C@@H]5CC[C@]43C)[C@@H]12
CC50 [1]: > 8000 nM | EC50 [2]: 734 nM

C=C(C)[C@@H]1CC[C@]2(CO)CC[C@]3(C)[C@H](CC[C@@H]4[C@@]5(C)CC=C(c6ccc(C(=O)O)cc6F)C(C)(C)[C@@H]5CC[C@]43C)[C@@H]12
CC50 [1]: 16500 nM | Ratio EC50 [4]: 1 | EC50 [2]: 55 nM | EC50 [5]: 50 nM | EC50 [3]: 1400 nM

C=C(C)[C@@H]1CC[C@]2(C(=O)O)CC[C@]3(C)[C@H](CC[C@@H]4[C@@]5(C)CC=C(c6cccc(-c7nn[nH]n7)c6)C(C)(C)[C@@H]5CC[C@]43C)[C@@H]12
CC50 [1]: 10500 nM | EC50 [2]: > 8000 nM

C=C(C)[C@@H]1CC[C@]2(CO)CC[C@]3(C)[C@H](CC[C@@H]4[C@@]5(C)CC=C(c6ccc(NS(C)(=O)=O)cc6)C(C)(C)[C@@H]5CC[C@]43C)[C@@H]12
CC50 [1]: 8820 nM | EC50 [2]: > 1600 nM | EC50 [5]: > 1600 nM | EC50 [3]: > 1600 nM

C=C(C)[C@@H]1CC[C@]2(C(=O)O)CC[C@]3(C)[C@H](CC[C@@H]4[C@@]5(C)CC=C(c6ccc(S(C)(=O)=O)cc6)C(C)(C)[C@@H]5CC[C@]43C)[C@@H]12
CC50 [1]: 9720 nM | EC50 [2]: 2520 nM

C=C(C)[C@@H]1CC[C@]2(C(=O)O)CC[C@]3(C)[C@H](CC[C@@H]4[C@@]5(C)CC=C(c6cccc(S(=O)(=O)NC)c6)C(C)(C)[C@@H]5CC[C@]43C)[C@@H]12
CC50 [1]: 13000 nM | EC50 [2]: 1230 nM

C=C(C)[C@@H]1CC[C@]2(CO)CC[C@]3(C)[C@H](CC[C@@H]4[C@@]5(C)CC=C(c6csc(C(=O)O)c6)C(C)(C)[C@@H]5CC[C@]43C)[C@@H]12
CC50 [1]: 14100 nM | EC50 [2]: 380 nM | EC50 [3]: > 2000 nM

C=C(C)[C@@H]1CC[C@]2(CO)CC[C@]3(C)[C@H](CC[C@@H]4[C@@]5(C)CC=C(c6ccc(-c7nn[nH]n7)cc6)C(C)(C)[C@@H]5CC[C@]43C)[C@@H]12
CC50 [1]: 34300 nM | EC50 [2]: 3400 nM | EC50 [3]: > 4000 nM
